Test results: article PMC5855688, “BC-Box Motif-Mediated Neuronal Differentiation of Somatic Stem Cells” (International Journal of Molecular Sciences, 2018)
Entries after “also recorded” stand apart in the source; their conditions may differ.

What was measured:
[1] = test system: skin-derived precursors (SKPs); assay: Western blot analysis of NFH protein; format: cell-based, rat (neonate Wistar); conditions: three days after treatment, Figure 3B, peptides at 1 to 5 μM, less than VHL(157–171): VHL(157–168) p < 0.01, TAT p < 0.001
Description: (§1) Rodent skin-derived precursor cells (SKPs), which can differentiate to neurons, were used. SKPs were previously isolated from the back dermis of neonate Wistar rats by the authors. These cells were cultured in growth medium composed of DMEM/F12 (1:1; Gibco, Grand Island, NY, USA) containing 2% B27 supplement (Gibco), 20 ng/mL epidermal growth factor (EGF; Upstate Biotechnology, Lake Placid, NY, USA), and 40 ng/mL bFGF (PeproTech EC Ltd., Rocky Hill, NJ, USA) in a humidified incubator at 37 °C with 5% CO2. The floating clusters of cultured cells were centrifuged and dissociated into a single-cell suspension by use of a Pasteur pipette with a flame-polished tip. These single cells were then re-suspended into at a concentration of 50,000 cells/mL for passage or experiments.
(§2) For neuronal differentiation, cells were dissociated into a single-cell suspension by use of a Pasteur pipette and re-suspended into a concentration of 50,000 cells/mL in DMEM/F12 without serum, neurotrophic factors or growth factors. Then, the cells were cultured on poly-L-lysine-coated dishes or cover glasses, and the synthesized peptides at concentrations from 1 to 5 μM were added to the culture medium and delivered into the cells. Three days or more later, the cells were used for morphological, immunocytochemical, immunohistochemical, electrophysiological and immunoprecipitation studies, as well as for Western blot analysis.
(§3) Cultured cells were washed 3 times in cold PBS and then scraped into ice-cold PBS. After incubation on ice for 10 min, the cells were lysed with lysis buffer and centrifuged, after which the supernatants were collected. Each sample was separated by SDS-PAGE under reducing conditions and transferred electrophoretically to nitrocellulose filters. Non-specific binding of antibody was blocked by incubation with 5% donkey serum for 1 h. Western blots were probed with anti-MAP2 antibody, anti-NFH antibody, anti-ChAT antibody, anti-GAD antibody, anti-rhodopsin antibody, anti-TH antibody, and anti-elongin C antibody (Santa Cruz, San Diego, CA, USA) followed by horseradish peroxidase-conjugated secondary antibodies. Protein bands were detected by using a chemical luminescence detection system (ECL Plus Western Blotting Reagent Pack, Amersham, Hemel Hempstead, UK). Images were analyzed with LAS-1000 (Fujifilm, Tokyo, Japan), and the density of the bands was determined by using Image Gauge software (Fujifilm).

[2] = test system: skin-derived precursors (SKPs); assay: Western blot analysis of neuronal markers in NDD peptide-treated cells; format: cell-based, rat (neonate Wistar); conditions: Figure 6A
Description: as §1, §2, §3

JAK2 = assay: Ubiquitination assay (IP anti-JAK2, IB anti-ubiquitin); format: biochemical, rat; conditions: incubation 4 h with ubiquitin, E1, E2 and peptide; vs no peptide or TAT, p < 0.001; Figure 5A
Description: We asked whether VHL(157–171) peptide-mediated neuronal differentiation was related to ubiquitination or not. […] After incubation for 4 h, cultured cells (1 × 10^6) were washed with ice-cold PBS and lysed in RIPA lysis buffer (Upstate, Charlottesville, VA, USA). The total protein was extracted from the cells, and the lysates were immunoprecipitated with anti-JAK2 antibody (Santa Cruz, San Diego, CA, USA) by using Protein A/G Sepharose (abcam, Cambridge, MA, USA). The immunoprecipitates were supplemented with 1 mM PMSF and the protease inhibitor cocktail. After 2 h, each sample was separated by SDS-PAGE and transferred electrophoretically to nitrocellulose filters. Western blots were probed with anti-ubiquitin antibody (Sigma-Aldrich) followed by horseradish peroxidase-conjugated secondary antibodies (Amersham). Protein bands were detected by using a chemical luminescence detection system (Amersham). Images were analyzed with LAS-1000 (Fujifilm).

STAT3 = assay: Western blotting of STAT3 before and after peptide treatment; format: cell-based, rat; conditions: Western blot, Figure 5B, p < 0.01

YARAAARQARATLKERCLQVVRSLVK [VHL(157–171), NDD in pVHL: BC-box motif plus five amino acids, conjugated with PTD]
NFH protein amount / band [1]: A distinct band for NFH; also recorded: significantly greater amount of anti-NFH protein
Expression of ChAT ([2]; choline acetyltransferase): high
Expression of TH ([2]; tyrosine hydroxylase): moderate
JAK2 ubiquitination (JAK2): had activity as an E3 ubiquitin ligase and mediated JAK2 ubiqutination; also recorded: ubiquitination was significantly enhanced
STAT3 degradation (STAT3): JAK2 and STAT3 were indeed degraded
